Results published in US5792747A, “Highly potent agonists of growth hormone releasing hormone” (The Administrators of the Tulane Educational Fund, priority 1995, dated 1998).
Non-standard residues stand in square brackets, D forms with d. Residues, ends and D or L forms follow the SMILES beside them. No end group written: not given here. *: point of attachment. Desaminotyrosyl = O=C(CCc1ccc(O)cc1)*; Agmatine = N=C(N)NCCCCN*; Nle = CCCC[C@H](N)C(=O)O; Orn = NCCC[C@H](N)C(=O)O; Abu = CC[C@H](N)C(=O)O

Tests used:
GH-deficient children = settings: subcutaneously twice a day; cited from earlier work
[1] = test system: superfused rat pituitary cell system; assay: GH release in superfused rat pituitary cell system (in vitro); format: cell-based; settings: 0.1-0.5 nM, 3 min administration, superfused rat pituitary cells
Protocol: The compounds of the present invention were tested both in vitro and in vivo. The levels of GH released in vivo by the synthetic peptides, following their intravenous (i.v.) or subcutaneous (sc.) injection in rats, are shown in Tables 2 and 3 respectively. The potencies of the peptides, based on 4-point assays, were calculated in all the Examples of this specification, by the factorial analyses of Bliss and Marks with 95% confidence limits.
Growth hormone releasing activity in vitro is assayed by using a superfused rat pituitary cell system as described in S. Vigh and A. V. Schally, Peptides 5, Suppl: 241-347, 1984, which is incorporated by reference herein. Each peptide, hGH-RH (1-29)NH2 (as control) and the synthetic peptide hGH-RH analogs of the present invention, is administered for 3 minutes (1 ml. perfusate) at various concentrations as shown below. Fractions of 1 ml are coIlected and the GH content in each is determined by RIA.

Compound	share of GH-deficient children in whom linear growth was promoted (GH-deficient children)	Potency relative to hGH-RH(1-29)NH2 = 1 (GH release in vitro) [1]
hGH-RH(1-29)NH2 (YADAIFTNSYRKVLGQLSARKLLQDIMSR-NH2; UniProt P01286 32-60, looked up, fragment)	approximately 50%	
CCCC[C@H](NC(=O)[C@@H](NC(=O)[C@H](CC(=O)O)NC(=O)[C@H](CCC(N)=O)NC(=O)[C@H](CC(C)C)NC(=O)[C@H](CC(C)C)NC(=O)[C@H](CCCN)NC(=O)[C@H](CCCNC(=N)N)NC(=O)[C@H](C)NC(=O)[C@H](CO)NC(=O)[C@H](CC(C)C)NC(=O)[C@H](CCC(N)=O)NC(=O)[C@H](CC)NC(=O)[C@H](CC(C)C)NC(=O)[C@@H](NC(=O)[C@H](CCCCN)NC(=O)[C@H](CCCNC(=N)N)NC(=O)[C@H](Cc1ccc(O)cc1)NC(=O)[C@H](CO)NC(=O)[C@H](CC(N)=O)NC(=O)[C@@H](NC(=O)[C@H](Cc1ccccc1)NC(=O)[C@@H](NC(=O)[C@H](C)NC(=O)[C@H](CC(=O)O)NC(=O)[C@H](C)NC(=O)CCc1ccc(O)cc1)[C@@H](C)CC)[C@@H](C)O)C(C)C)[C@@H](C)CC)C(=O)N[C@@H](CO)C(=O)NCCCCNC(=N)N [Example II, (Dat^1,Abu^15,Orn^21,Nle^27,Agm^29)hGH-RH(1-29)] (Desaminotyrosyl-ADAIFTNSYRKVL[Abu]QLSAR[Orn]LLQDI[Nle]S-Agmatine)		6.4
CCCC[C@H](NC(=O)[C@@H](NC(=O)[C@H](CC(=O)O)NC(=O)[C@H](CCC(N)=O)NC(=O)[C@H](CC(C)C)NC(=O)[C@H](CC(C)C)NC(=O)[C@H](CCCCN)NC(=O)[C@H](CCCNC(=N)N)NC(=O)[C@H](C)NC(=O)[C@H](CO)NC(=O)[C@H](CC(C)C)NC(=O)[C@H](CCC(N)=O)NC(=O)[C@H](CC)NC(=O)[C@H](CC(C)C)NC(=O)[C@@H](NC(=O)[C@H](CCCN)NC(=O)[C@H](CCCNC(=N)N)NC(=O)[C@H](Cc1ccc(O)cc1)NC(=O)[C@H](CO)NC(=O)[C@H](CC(N)=O)NC(=O)[C@@H](NC(=O)[C@H](Cc1ccccc1)NC(=O)[C@@H](NC(=O)[C@H](C)NC(=O)[C@H](CC(=O)O)NC(=O)[C@H](C)NC(=O)CCc1ccc(O)cc1)[C@@H](C)CC)[C@@H](C)O)C(C)C)[C@@H](C)CC)C(=O)N[C@@H](CO)C(=O)NCCCCNC(=N)N [Example III, (Dat^1,Orn^12,Abu^15,Nle^27,Agm^29)hGH-RH(1-29)] (Desaminotyrosyl-ADAIFTNSYR[Orn]VL[Abu]QLSARKLLQDI[Nle]S-Agmatine)		3.8
CCCC[C@H](NC(=O)[C@@H](NC(=O)[C@H](CC(=O)O)NC(=O)[C@H](CCC(N)=O)NC(=O)[C@H](CC(C)C)NC(=O)[C@H](CC(C)C)NC(=O)[C@H](CCCN)NC(=O)[C@H](CCCNC(=N)N)NC(=O)[C@H](C)NC(=O)[C@H](CO)NC(=O)[C@H](CC(C)C)NC(=O)[C@H](CCC(N)=O)NC(=O)[C@H](CC)NC(=O)[C@H](CC(C)C)NC(=O)[C@@H](NC(=O)[C@H](CCCN)NC(=O)[C@H](CCCNC(=N)N)NC(=O)[C@H](Cc1ccc(O)cc1)NC(=O)[C@H](CO)NC(=O)[C@H](CC(N)=O)NC(=O)[C@@H](NC(=O)[C@H](Cc1ccccc1)NC(=O)[C@@H](NC(=O)[C@H](C)NC(=O)[C@H](CC(=O)O)NC(=O)[C@H](C)NC(=O)CCc1ccc(O)cc1)[C@@H](C)CC)[C@@H](C)O)C(C)C)[C@@H](C)CC)C(=O)N[C@@H](CO)C(=O)NCCCCNC(=N)N [Example I, (Dat^1,Orn ^12,21,Abu^15,Nle^27,Agm^29)hGH-RH(1-29)] (Desaminotyrosyl-ADAIFTNSYR[Orn]VL[Abu]QLSAR[Orn]LLQDI[Nle]S-Agmatine)		5.9
